Tested on: relapsed and refractory CLL patients
Experiment: Phase I dose escalation: toxicity and tolerability
Format: in vivo, human
[1] = treatment related, all cohorts, N=52

CCc1cnn2c(NCc3ccc[n+]([O-])c3)cc(N3CCCC[C@H]3CCO)nc12 [Dinaciclib]
maximally tolerated dose (2 hour infusion weekly x 3 of every 4 weeks): 14 mg/m^2
other patients who discontinued therapy due to toxicity (all patients): Five
patients off therapy for adverse events (all patients): 10%
deaths within 30 days of last dose (all patients, two due to disease progression): 3
No Pts with Dose Reduction (cohort 5 mg/m^2): 0
Pts with DLT (cohort 5 mg/m^2): 0
No Pts with Dose Reduction (cohort 7 mg/m^2): 0
Pts with DLT (cohort 7 mg/m^2): 1
No Pts with Dose Reduction (cohort 10 mg/m^2): 1
Pts with DLT (cohort 10 mg/m^2): 0
No Pts with Dose Reduction (cohort 14 mg/m^2): 5
Pts with TLS (cohort 14 mg/m^2): 4
Pts with TLS (Dialysis) (cohort 14 mg/m^2, requiring dialysis): 1
No Pts with Dose Reduction (cohort 17 mg/m^2): 1
Pts with TLS (cohort 17 mg/m^2): 1 (1)
Pts with TLS (Dialysis) (cohort 17 mg/m^2, requiring dialysis): 1 (1)
No Pts with Dose Reduction (cohort 7→10→14 mg/m^2): 1
Pts with TLS (cohort 7→10→14 mg/m^2): 1 (1)
No Pts with Dose Reduction (cohort 10→14 mg/m^2): 1
Pts with TLS (cohort 10→14 mg/m^2): 2
Anemia, Grade 1 [1]: 8 (15) No (%)
Anemia, Grade 2 [1]: 17 (33) No (%)
Anemia, Grade 3 [1]: 14 (27) No (%)
Anemia, Grade 4 [1]: 1 (2) No (%)
Anemia, Total [1]: 40 (77) No (%)
Constipation, Grade 1 [1]: 4 (8) No (%)
Constipation, Grade 2 [1]: 1 (2) No (%)
Constipation, Grade 3 [1]: 1 (2) No (%)
Constipation, Grade 4 [1]: 0 (0) No (%)
Constipation, Total [1]: 6 (12) No (%)
Cytokine release, Grade 1 [1]: 1 (2) No (%)
Cytokine release, Grade 2 [1]: 6 (12) No (%)
Cytokine release, Grade 3 [1]: 1 (2) No (%)
Cytokine release, Grade 4 [1]: 0 (0) No (%)
Cytokine release, Total [1]: 8 (15) No (%)
Diarrhea, Grade 1 [1]: 14 (27) No (%)
Diarrhea, Grade 2 [1]: 7 (13) No (%)
Diarrhea, Grade 3 [1]: 2 (4) No (%)
Diarrhea, Grade 4 [1]: 0 (0) No (%)
Diarrhea, Total [1]: 23 (44) No (%)
Fatigue, Grade 1 [1]: 7 (13) No (%)
Fatigue, Grade 2 [1]: 8 (15) No (%)
Fatigue, Grade 3 [1]: 2 (4) No (%)
Fatigue, Grade 4 [1]: 0 (0) No (%)
Fatigue, Total [1]: 17(33) No (%)
Herpes infection, Grade 1 [1]: 2 (4) No (%)
Herpes infection, Grade 2 [1]: 1 (2) No (%)
Herpes infection, Grade 3 [1]: 0 (0) No (%)
Herpes infection, Grade 4 [1]: 0 (0) No (%)
Herpes infection, Total [1]: 3 (6) No (%)
Hyperglycemia, Grade 1 [1]: 8 (15) No (%)
Hyperglycemia, Grade 2 [1]: 16 (31) No (%)
Hyperglycemia, Grade 3 [1]: 11 (21) No (%)
Hyperglycemia, Grade 4 [1]: 0 (0) No (%)
Hyperglycemia, Total [1]: 35 (67) No (%)
Hyperkalemia, Grade 1 [1]: 7 (13) No (%)
Hyperkalemia, Grade 2 [1]: 3 (6) No (%)
Hyperkalemia, Grade 3 [1]: 3 (6) No (%)
Hyperkalemia, Grade 4 [1]: 3 (6) No (%)
Hyperphosphatemia, Grade 1 [1]: 6 (12) No (%)
Hyperphosphatemia, Grade 2 [1]: 1 (2) No (%)
Hyperphosphatemia, Grade 3 [1]: 0 (0) No (%)
Hyperphosphatemia, Grade 4 [1]: 0 (0) No (%)
Hyperphosphatemia, Total [1]: 7 (13) No (%)
Hypoalbuminemia, Grade 1 [1]: 12 (23) No (%)
Hypoalbuminemia, Grade 2 [1]: 3 (6) No (%)
Hypoalbuminemia, Grade 3 [1]: 0 (0) No (%)
Hypoalbuminemia, Grade 4 [1]: 0 (0) No (%)
Hypoalbuminemia, Total [1]: 15 (29) No (%)
Hypocalcemia, Grade 1 [1]: 17 (33) No (%)
Hypocalcemia, Grade 2 [1]: 1 (2) No (%)
Hypocalcemia, Grade 3 [1]: 9 (17) No (%)
Hypocalcemia, Grade 4 [1]: 0 (0) No (%)
Hypocalcemia, Total [1]: 27 (52) No (%)
Hypokalemia, Grade 1 [1]: 17 (33) No (%)
Hypokalemia, Grade 2 [1]: 1 (2) No (%)
Hypokalemia, Grade 3 [1]: 9 (17) No (%)
Hypokalemia, Grade 4 [1]: 0 (0) No (%)
Hypokalemia, Total [1]: 27 (52) No (%)
Hyponatremia, Grade 1 [1]: 18 (35) No (%)
Hyponatremia, Grade 2 [1]: 0 (0) No (%)
Hyponatremia, Grade 3 [1]: 1 (2) No (%)
Hyponatremia, Grade 4 [1]: 0 (0) No (%)
Hyponatremia, Total [1]: 19 (37) No (%)
Hypophosphatemia, Grade 1 [1]: 6 (12) No (%)
Hypophosphatemia, Grade 2 [1]: 5 (10) No (%)
Hypophosphatemia, Grade 3 [1]: 6 (12) No (%)
Hypophosphatemia, Grade 4 [1]: 1 (2) No (%)
Hypophosphatemia, Total [1]: 18 (35) No (%)
Increased ALT, Grade 1 [1]: 6 (12) No (%)
Increased ALT, Grade 2 [1]: 9 (17) No (%)
Increased ALT, Grade 3 [1]: 5 (10) No (%)
Increased ALT, Grade 4 [1]: 0 (0) No (%)
Increased ALT, Total [1]: 20 (38) No (%)
Increased AST, Grade 1 [1]: 11 (21) No (%)
Increased AST, Grade 2 [1]: 8 (15) No (%)
Increased AST, Grade 3 [1]: 13 (25) No (%)
Increased AST, Grade 4 [1]: 2 (4) No (%)
Increased AST, Total [1]: 34 (65) No (%)
Increased Alkaline Phosphatase, Grade 1 [1]: 8 (15) No (%)
Increased Alkaline Phosphatase, Grade 2 [1]: 1 (2) No (%)
Increased Alkaline Phosphatase, Grade 3 [1]: 0 (0) No (%)
Increased Alkaline Phosphatase, Grade 4 [1]: 0 (0) No (%)
Increased Alkaline Phosphatase, Total [1]: 9 (17) No (%)
Increased bilirubin, Grade 1 [1]: 5 (10) No (%)
Increased bilirubin, Grade 2 [1]: 0 (0) No (%)
Increased bilirubin, Grade 3 [1]: 0 (0) No (%)
Increased bilirubin, Grade 4 [1]: 0 (0) No (%)
Increased bilirubin, Total [1]: 5 (10) No (%)
Increased creatinine, Grade 1 [1]: 11 (21) No (%)
Increased creatinine, Grade 2 [1]: 3 (6) No (%)
Increased creatinine, Grade 3 [1]: 0 (0) No (%)
Increased creatinine, Grade 4 [1]: 0 (0) No (%)
Increased creatinine, Total [1]: 14 (27) No (%)
Nausea, Grade 1 [1]: 10 (19) No (%)
Nausea, Grade 2 [1]: 3 (6) No (%)
Nausea, Grade 3 [1]: 0 (0) No (%)
Nausea, Grade 4 [1]: 0 (0) No (%)
Nausea, Total [1]: 13 (25) No (%)
Neutropenia, Grade 1 [1]: 3 (6) No (%)
Neutropenia, Grade 2 [1]: 2 (4) No (%)
Neutropenia, Grade 4 [1]: 28 (54) No (%)
Neutropenia, Total [1]: 44 (85) No (%)
Pharyngitis/sinusitis/respiratory infection, Grade 1 [1]: 2 (4) No (%)
Pharyngitis/sinusitis/respiratory infection, Grade 2 [1]: 2 (4) No (%)
Pharyngitis/sinusitis/respiratory infection, Grade 3 [1]: 0 (0) No (%)
Pharyngitis/sinusitis/respiratory infection, Grade 4 [1]: 0 (0) No (%)
Pharyngitis/sinusitis/respiratory infection, Total [1]: 4 (8) No (%)
Pneumonia, Grade 1 [1]: 0 (0) No (%)
Pneumonia, Grade 2 [1]: 0 (0) No (%)
Pneumonia, Grade 3 [1]: 2 (4) No (%)
Pneumonia, Total [1]: 2 (4) No (%)
Sepsis, Grade 1 [1]: 0 (0) No (%)
Sepsis, Grade 2 [1]: 0 (0) No (%)
Sepsis, Grade 3 [1]: 1 (2) No (%)
Sepsis, Grade 4 [1]: 0 (0) No (%)
Sepsis, Total [1]: 1 (2) No (%)
Thrombocytopenia, Grade 1 [1]: 10 (19) No (%)
Thrombocytopenia, Grade 2 [1]: 6 (12) No (%)
Thrombocytopenia, Grade 3 [1]: 11 (21) No (%)
Thrombocytopenia, Grade 4 [1]: 10 (19) No (%)
Thrombocytopenia, Total [1]: 37 (71) No (%)
Tumor lysis syndrome, Grade 1 [1]: 0 (0) No (%)
Tumor lysis syndrome, Grade 2 [1]: 0 (0) No (%)
Tumor lysis syndrome, Grade 3 [1]: 7 (13) No (%)
Tumor lysis syndrome, Grade 4 [1]: 1 (2) No (%)
Tumor lysis syndrome, Total [1]: 8 (15) No (%)
Urosepsis, Grade 1 [1]: 0 (0) No (%)
Urosepsis, Grade 2 [1]: 0 (0) No (%)
Urosepsis, Grade 3 [1]: 0 (0) No (%)
Urosepsis, Grade 4 [1]: 1 (2) No (%)
Urosepsis, Total [1]: 1 (2) No (%)
